The subject of one experiment is adenosine receptors. The note with it: CD73 KO mice made septic by CLP; compared with wild-type mice; cited from earlier work.
The test system of experiment [1] is C57BL/6J mice made septic by cecal ligation and puncture (CLP). As to the kind of experiment: Survival after sepsis induced by cecal ligation and puncture (CLP). The experiment is classed as in vivo, mouse. The note with it: murine model of septic shock induced by cecal ligation and puncture. The protocol:
In this analysis, CD39 KO mice, mice administered a CD39 blocker (sodium polyoxotungstate) or mice administered an apyrase (potato apyrase) were made septic by cecal ligation and puncture (CLP) and survival after CLP was recorded for 7 days. In addition, the immune status of the mice was assessed by measuring cytokine levels from blood and peritoneal lavage fluid. […] Thus, ectonucleotidase manipulation is therapeutically useful for the treatment of septic shock.
(§1) CD39 knockout (KO) mice and their wild-type littermates were developed according to established methods and were backcrossed 6-8 times to a C57BL/6J background (Enjyoji, et al. (1999) Nat. Med. 5(9):1010-7). Wild-type and KO littermates were used in this analysis. In some experiments, mice were treated with sodium polyoxotungstate (POM-1, Na6[H2W12O40], 3 mg/kg/h, […], prior to CLP) or apyrase from potatoes (Sigma, 5 U apyrase i.p., prior to CLP).
(§2) Polymicrobial sepsis was induced by subjecting C57BL/6J mice to CLP in accordance with established methods (Németh, et al. (2006) supra; Gallos, et al. (2005) supra; Lee, et al. (2006) supra; Csóka, et al. (2010) supra). After the operation, all mice were resuscitated with 1 ml physiological saline injected s.c. and returned to their cages with free access to food and water.

In the next experiment the test system is MIP-2. As to the kind of experiment: MIP-2 level after CLP (ELISA). The experiment is classed as in vivo, mouse. The following applies: C57BL/6J mice, 16 hours post-CLP, vs. vehicle. The protocol: as §1, §2
(§3) Sixteen hours after the CLP operation (the following day), the mice were reanesthetized with pentobarbital (50 mg/kg i.p.), and blood and peritoneal lavage fluid were harvested. Specifically, after opening the chest of mice, blood samples were obtained aseptically by cardiac puncture using heparinized syringes. […]
(§4) Concentrations of TNF-α and MIP-2 were determined in blood and peritoneal lavage fluid obtained 16 hours after CLP using commercially available ELISA kits (R&D Systems, Minneapolis, Minn.) according to the manufacturer's instructions.

In another experiment the test system is TNF-α. As to the kind of experiment: TNF-α level after CLP (ELISA). It is filed as in vivo, mouse. The following applies: C57BL/6J mice, 16 hours post-CLP, vs. vehicle. On the procedure: as §1, §2, §3, §4
In general terms: An ELISA detects its analyte on a solid surface through an enzyme-linked reagent.

The text below walks through data of patent US9987336B2, “Attenuating or treating sepsis or septic shock” (Rutgers, the State University of New Jersey, priority 2012, dated 2018).

Entries after “also recorded” stand apart in the source; their conditions may differ.

Take `CCNC(=O)[C@H]1O[C@@H](n2cnc3c(N)ncnc32)[C@H](O)[C@@H]1O` [NECA, 5′-(N-ethylcarboxamido)adenosine]: the inflammatory cytokine levels result in the experiment with adenosine receptors is listed as “completely reversed the increased cytokine levels”.

On to apyrase, for which, in experiment [1], the organ dysfunction entry is recorded as “prevents organ dysfunction”. Moreover, in the experiment on MIP-2, the MIP-2 levels result is recorded as “decreases plasma cytokine levels; also recorded: decreased the levels”. The TNF-α levels entry in the experiment with TNF-α was “decreases plasma cytokine levels; also recorded: decreased the levels”.

In the case of “sodium polyoxotungstate [reference compound]”, the MIP-2 levels result in the experiment on MIP-2 was “increased the levels”. For the same compound, in the experiment on TNF-α, the TNF-α levels result was “increased the levels”.
